Measurements as given in patent publication US7456167B2, “Cyclopropyl fused indolobenzazepine HCV NS5B inhibitors” (Bristol-Myers Squibb Company, priority 2006, dated 2008).

What was measured:
HCV replicon cells = assay: HCV replicon FRET assay; format: cell-based; conditions: Hepatitis C virus; HCV replicon cells; FRET assay; read-out: EC50
Text: FRET Assay Preparation. To perform the HCV FRET screening assay, 96-well cell culture plates were used. The FRET peptide (Anaspec, Inc.) (Taliani et al., Anal. Biochem. 1996, 240, 60-67) contains a fluorescence donor, EDANS, near one end of the peptide and an acceptor, DABCYL, near the other end. The fluorescence of the peptide is quenched by […] resonance energy transfer (RET) between the donor and the acceptor, but as the NS3 protease cleaves the peptide the products are released from RET quenching and the fluorescence of the donor becomes apparent. The assay reagent was made as follows: 5× cell Luciferase cell culture lysis reagent from Promega (#E153A) diluted to 1× with dH2O, NaCl added to 150 mM final, the FRET peptide diluted to 20 uM final from a 2 mM stock.
To prepare plates, HCV replicon cells, with or without a Renilla luciferase reporter gene, were trypsinized and placed into each well of a 96-well plate with titrated test compounds added in columns 3 through 12; columns 1 and 2 contained a control compound (HCV protease inhibitor), and the bottom row contained cells without compound. The plates were then placed in a CO2 incubator at 37° C.
Assays. Subsequent to addition of the test compounds described above (FRET Assay Preparation), at various times the plate was removed and Alamar blue solution (Trek Diagnostics, #00-100) was added per well as a measure of cellular toxicity. After reading in a Cytoflour 4000 instrument (PE Biosystems), plates were rinsed with PBS and then used for FRET assay by the addition of 30 ul of the FRET peptide assay reagent described above (FRET Assay Preparation) per well. The plate was then placed into the Cytoflour 4000 instrument which had been set to 340 excite/490 emission, automatic mode for 20 cycles and the plate read in a kinetic mode. Typically, the signal to noise using an endpoint analysis after the reads was at least three-fold. Alternatively, after Alamar blue reading, plates were rinsed with PBS, 50 ul of DMEM (high glucose) without phenol red was added and plates were then used for luciferase assay using the Promega Dual-Glo Luciferase Assay System.
Compound analysis was determined by quantification of the relative HCV replicon inhibition and the relative cytotoxicity values. To calculate cytoxicity values, the average Alamar Blue fluorescence signals from the control wells were set as 100% non-toxic. The individual signals in each of the compound test wells were then divided by the average control signal and multiplied by 100% to determine […]. To calculate the HCV replicon inhibition values, an average background value was obtained from the two wells containing the highest amount of HCV protease inhibitor at the end of the assay period. These numbers were similar to those obtained from naïve Huh-7 cells.
The background numbers were then subtracted from the average signal obtained from the control wells and this number was used as 100% activity. The individual signals in each of the compound test wells were then divided by the averaged control values after background subtraction and multiplied by 100% to determine percent activity. EC50 values for a protease inhibitor titration were calculated as the concentration which caused a 50% reduction in FRET or luciferase activity. The two numbers generated for the compound plate, percent cytoxicity and percent activity were used to determine compounds of interest for further analysis.

[1] = biological target: T1, HCV NS5B RdRp genotype 1b (Hepatitis C virus genotype 1b, UniProt Q9WMX2); assay: Modified HCV NS5B RdRp enzyme assay (preincubation protocol); format: biochemical; conditions: HCV NS5B RdRp genotype 1b; preincubation protocol; read-out: IC50
T1 construct: The protein was expressed with an 18 amino acid C-terminal truncation to enhance the solubility; made in house; host or cells: E. coli BL21(DE3)
Description: HCV NS5B RdRp cloning, expression, and purification. The cDNA encoding the NS5B protein of HCV, genotype 1b, was cloned into the pET21a expression vector. The protein was expressed with an 18 amino acid C-terminal truncation to enhance the solubility. The E. coli competent cell line BL21(DE3) was used for expression of the protein. Cultures were grown at 37° C. for ˜4 hours until the cultures reached an optical density of 2.0 at 600 nm. The cultures were cooled to 20° C. and induced with 1 mM IPTG. Fresh ampicillin was added to a final concentration of 50 μg/ml and the cells were grown overnight at 20° C.
Cell pellets (3 L) were lysed for purification to yield 15-24 mgs of purified NS5B. The lysis buffer consisted of 20 mM Tris-HCl, pH 7.4, 500 mM NaCl, 0.5% triton X-100, 1 mM DTT, 1 mM EDTA, 20% glycerol, 0.5 mg/ml lysozyme, 10 mM MgCl2, 15 ug/ml deoxyribonuclease I, and Complete TM protease inhibitor tablets (Roche). After addition of the lysis buffer, frozen cell pellets were resuspended using a tissue homogenizer. To reduce the viscosity of the sample, aliquots of the lysate were sonicated on ice using a microtip attached to a Branson sonicator. The sonicated lysate was centrifuged at 100,000×g for 1 hr at 4° C. and filtered through a 0.2 μm filter unit (Corning).
The protein was purified using three sequential chromatography steps: Heparin sepharose CL-6B, polyU sepharose 4B, and Hitrap SP sepharose (Pharmacia). The chromatography buffers were identical to the lysis buffer but contained no lysozyme, deoxyribonuclease I, MgCl2 or protease inhibitor and the NaCl concentration of the buffer was adjusted according to the requirements for charging the protein onto the column. Each column was eluted with a NaCl gradient which varied in length from 5-50 column volumes depending on the column type. After the final chromatography step, the resulting purity of the enzyme is >90% based on SDS-PAGE analysis. The enzyme was aliquoted and stored at −80° C.
Standard HCV NS5B RdRp enzyme assay. HCV RdRp genotype 1b assays were run in a final volume of 60 μl in 96 well plates (Costar 3912). The assay buffer is composed of 20 mM Hepes, pH 7.5, 2.5 mM KCl, 2.5 mM MgCl2, 1 mM DTT, 1.6 U RNAse inhibitor (Promega N2515), 0.1 mg/ml BSA (Promega R3961), and 2% glycerol. All compounds were serially diluted (3-fold) in DMSO and diluted further in water such that the final concentration of DMSO in the assay was 2%. HCV RdRp genotype 1b enzyme was used at a final concentration of 28 nM. A polyA template was used at 6 nM, and a biotinylated oligo-dT12 primer was used at 180 nM final concentration. Template was obtained commercially (Amersham 27-4110). Biotinylated primer was prepared by Sigma Genosys. 3H-UTP was used at 0.6 μCi (0.29 μM total UTP). Reactions were initiated by the addition of enzyme, incubated at 30° C. for 60 min, and stopped by adding 25 μl of 50 mM EDTA containing SPA beads (4 μg/μl, Amersham RPNQ 0007). Plates were read on a Packard Top Count NXT after >1 hr incubation at room temperature.
Modified HCV NS5B RdRp enzyme assay. A modified enzyme assay was performed essentially as described for the standard enzyme assay except for the following: The biotinylated oligo dT12 primer was precaptured on streptavidin-coated SPA beads by mixing primer and beads in assay buffer and incubating at room temperature for one hour. Unbound primer was removed after centrifugation. The primer-bound beads were resuspended in 20 mM Hepes buffer, pH 7.5 and used in the assay at final concentrations of 20 nM primer and 0.67 μg/μl beads. Order of addition in the assay: enzyme (14 nM) was added to diluted compound followed by the addition of a mixture of template (0.2 nM), 3H-UTP (0.6 μCi, 0.29 μM), and primer-bound beads, to initiate the reaction; concentrations given are final. Reactions were allowed to proceed for 4 hours at 30° C.
IC50 values for compounds were determined using seven different [I]. […]

T1 sequence (Q9WMX2 2420-2992): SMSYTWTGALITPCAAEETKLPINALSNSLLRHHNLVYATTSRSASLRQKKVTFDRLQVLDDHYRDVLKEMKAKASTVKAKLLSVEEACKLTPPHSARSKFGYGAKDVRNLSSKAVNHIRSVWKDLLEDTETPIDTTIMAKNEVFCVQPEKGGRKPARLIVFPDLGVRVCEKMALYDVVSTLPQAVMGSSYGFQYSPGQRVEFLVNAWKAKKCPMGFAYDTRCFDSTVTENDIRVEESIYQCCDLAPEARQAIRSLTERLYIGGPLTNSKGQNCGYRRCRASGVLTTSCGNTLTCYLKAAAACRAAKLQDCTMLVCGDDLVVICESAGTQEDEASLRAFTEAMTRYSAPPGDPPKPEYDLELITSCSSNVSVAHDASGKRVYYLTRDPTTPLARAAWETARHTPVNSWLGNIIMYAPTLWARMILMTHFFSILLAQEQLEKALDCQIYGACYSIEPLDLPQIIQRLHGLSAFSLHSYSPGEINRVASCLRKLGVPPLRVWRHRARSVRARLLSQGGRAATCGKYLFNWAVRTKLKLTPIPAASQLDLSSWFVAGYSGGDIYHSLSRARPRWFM

## COc1ccc2c(c1)CC(S(=O)(=O)CCN(C)C)Cn1c-2c(C2CCCCC2)c2ccc(C(=O)NS(=O)(=O)N(C)C)cc21 (stereo not shown)
HCV replicon cells
  EC50: 20 to 1000 nM
[1]
  IC50: 20 to 1000 nM

## COc1ccc2c(c1)C1CC1(S(=O)(=O)N1CCOCC1)Cn1c-2c(C2CCCCC2)c2ccc(C(=O)NS(=O)(=O)N(C)C)cc21 (stereo not shown)
HCV replicon cells
  EC50: 20 to 1000 nM
[1]
  IC50: 20 to 1000 nM

## CCN1CC2CC1CN2S(=O)(=O)C12CC1c1cc(OC)ccc1-c1c(C3CCCCC3)c3ccc(C(=O)NS(=O)(=O)C(C)C)cc3n1C2 (stereo not shown)
HCV replicon cells
  EC50: 20 to 1000 nM
[1]
  IC50: 20 to 1000 nM

## COc1ccc2c(c1)C1CC1(S(=O)(=O)N1CCN(S(C)(=O)=O)CC1)Cn1c-2c(C2CCCCC2)c2ccc(C(=O)O)cc21 (stereo not shown)
HCV replicon cells
  EC50: 1000 to 10000 nM
[1]
  IC50: 20 to 1000 nM

## COc1ccc2c(c1)C1CC1(S(=O)(=O)N1CCN3CCC1CC3)Cn1c-2c(C2CCCCC2)c2ccc(C(=O)NS(=O)(=O)C(C)C)cc21 (stereo not shown)
HCV replicon cells
  EC50: 20 to 1000 nM
[1]
  IC50: 20 to 1000 nM

## COc1ccc2c(c1)C1CC1(S(=O)(=O)N1CC[C@@H](N(C)C)C1)Cn1c-2c(C2CCCCC2)c2ccc(C(=O)NS(=O)(=O)N(C)C)cc21 (stereo partly shown)
HCV replicon cells
  EC50: 20 to 1000 nM
[1]
  IC50: 20 to 1000 nM

## COc1ccc2c(c1)C=C(S(=O)(=O)N1CCOCC1)Cn1c-2c(C2CCCCC2)c2ccc(C(=O)NS(=O)(=O)N(C)C)cc21
HCV replicon cells
  EC50: 20 to 1000 nM
[1]
  IC50: 20 to 1000 nM

## COc1ccc2c(c1)C1CC1(S(=O)(=O)N1C3CC1CN(C)C3)Cn1c-2c(C2CCCCC2)c2ccc(C(=O)NS(=O)(=O)C(C)C)cc21 (stereo not shown)
HCV replicon cells
  EC50: 20 to 1000 nM
[1]
  IC50: 20 to 1000 nM

## COc1ccc2c(c1)C1CC1(S(=O)(=O)N1CCN3CCC1CC3)Cn1c-2c(C2CCCCC2)c2ccc(C(=O)NS(=O)(=O)N(C)C)cc21 (stereo not shown)
HCV replicon cells
  EC50: 20 to 1000 nM
[1]
  IC50: 20 to 1000 nM

## COc1ccc2c(c1)C1CC1(S(=O)(=O)N1C[C@@H](C)O[C@@H](C)C1)Cn1c-2c(C2CCCCC2)c2ccc(C(=O)O)cc21 (stereo partly shown)
HCV replicon cells
  EC50: 20 to 1000 nM
[1]
  IC50: 20 to 1000 nM

## COc1ccc2c(c1)C1CC1(S(=O)(=O)N1CC(O)C1)Cn1c-2c(C2CCCCC2)c2ccc(C(=O)O)cc21 (stereo not shown)
HCV replicon cells
  EC50: 20 to 1000 nM
[1]
  IC50: 20 to 1000 nM

## COc1ccc2c(c1)C1CC1(S(=O)(=O)N1CC(C)(O)C1)Cn1c-2c(C2CCCCC2)c2ccc(C(=O)O)cc21 (stereo not shown)
HCV replicon cells
  EC50: 20 to 1000 nM
[1]
  IC50: 20 to 1000 nM

## COc1ccc2c(c1)CC(S(=O)(=O)N1CCOCC1)Cn1c-2c(C2CCCCC2)c2ccc(C(=O)O)cc21 (stereo not shown)
HCV replicon cells
  EC50: 20 to 1000 nM
[1]
  IC50: 20 to 1000 nM

## COc1ccc2c(c1)C1CC1(S(=O)(=O)N1C[C@@H](C)N(C)[C@@H](C)C1)Cn1c-2c(C2CCCCC2)c2ccc(C(=O)NS(=O)(=O)N(C)C)cc21 (stereo partly shown)
HCV replicon cells
  EC50: 20 to 1000 nM
[1]
  IC50: 20 to 1000 nM
